Data reported in patent publication US20230270676A1 (priority 2020, published 2023).

Columns and labels:
Type in all cases: cell-based, human
[1] = tested on: HCT116 cells; assay: Apoptosis of tumor cells by flow cytometry (Annexin V-FITC/PI); conditions: 48 h after administration, untreated group 16%
Protocol: 48 h after administration, a supernatant in each group was removed, the cells were washed with 1×PBS 3 times and then digested with EDTA-free trypsin for 2 min, and a 10% FBS-containing cell culture medium was added to stop the digestion. The resulting suspension was collected in a centrifuge tube and centrifuged at 1,000 rpm for 3 min, and resulting cells were washed twice with 1×PBS (4° C.) and resuspended in 400 μL of an Annexin V binding solution. 5 μL of an Annexin V-FITC staining solution was added, and the cells were incubated in the dark for 15 min. 10 μL of a PI staining solution was added, and the cells were incubated in the dark for 5 min. The cells were immediately tested by FC.

[2] = tested on: SW-480 cells; assay: Transwell migration experiment (SW-480); conditions: drug 15 μg/mL, 36 h, untreated group 100.0±11.7
Protocol: Each of the HCT116 and SW-480 cells in a logarithmic growth stage was taken and prepared into a suspension with a serum-free cell culture medium, counted, and diluted in folds, and a serum-free cell culture medium with the drug of 15 μg/mL was added. 200 μL of the suspension was inoculated into an upper chamber of a Transwell cell at a density of 1×10^5 cells/well, 500 μL of a 10% FBS-containing cell culture medium was added to a lower chamber of the Transwell cell, and the Transwell cell was incubated in a 5% CO2/37° C. incubator with saturated humidity for 36 h. The number of cells passing through the cell was counted, and cells in the upper chamber were gently wiped off with a cotton swab. Cells in the lower chamber were fixed with formaldehyde for 15 min, then stained with a 1% gentian violet staining solution for 30 min, and observed and counted under a microscope.

[3] = tested on: SW-480 cells; assay: Plate cloning experiment for proliferation of tumor cells (SW-480); conditions: untreated group 36.1±7.5
Protocol: (§1) Each of the HCT116 and SW-480 cells in a logarithmic growth phase was prepared into a suspension with a 10% FBS-containing cell culture medium, blown into single cells, counted, inoculated into a six-well plate at a density of 1×10^3 cells/well, and cultivated in a 5% CO2/37° C. incubator with saturated humidity until the cells were adherent to the wall. […] After the administration, the cells were often observed, and when clone spheres visible to the naked eye appeared, the cell cultivation was stopped, the supernatant was discarded, the cells were washed twice with PBS, and 1 mL of 4% paraformaldehyde (PFA) was added to conduct fixation for 20 min. The fixation solution was removed, the cells were washed 3 times with PBS, a 1% gentian violet staining solution was added to conduct staining for 30 min, and then the cells were slowly rinsed with running water to remove the staining solution, dried in an oven at 37° C., and photographed and counted. Colony-forming efficiency (CFE)=(number of cell clones/number of inoculated cells)×100%. […] The colony number was calculated for each group.

[4] = tested on: HCT116 cells; assay: Plate cloning experiment for proliferation of tumor cells (HCT116); conditions: untreated group 62.0±7.6
Protocol: as §1

**Q.** Which results are given for `CO[C@H]1C[C@@H]2CC[C@@H](C)[C@@](O)(O2)C(=O)C(=O)N2CCCC[C@H]2C(=O)O[C@H]([C@H](C)C[C@@H]2CC[C@@H](O)[C@H](OC)C2)CC(=O)[C@H](C)/C=C(\C)[C@@H](O)[C@@H](OC)C(=O)[C@H](C)C[C@H](C)/C=C/C=C/C=C/1C` [free RAPA, rapamycin]?
**A.** Apoptosis rate [1]: 21%; Percentage of cells passing through the cell [2]: 57.4±10.6%; Colony number [3]: 33.2±3.7; Colony number [4]: 49.2±5.2
